Experimental data published in PubChem BioAssay AID463203 (Broad Institute, 2010).
Active and inactive are the calls of the source.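 The calls were made as follows: active = more than half of replicate measurements showing over 20% loss of kinase signal relative to plate controls; inconclusive = some but at most half of replicates over 20% loss; inactive = no replicate over 20% signal loss.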

target: Glycogen synthase kinase-3 alpha (Homo sapiens) (UniProt P49840); test: concentration-response blocking of human GSK3A – biochemical, luminescence, cell-free homogeneous, retest, dose response (AID 463203); conditions: GSK-3 alpha enzyme, ADP-Glo luminescence, 60 min
Sequence (P49840 whole entry, looked up): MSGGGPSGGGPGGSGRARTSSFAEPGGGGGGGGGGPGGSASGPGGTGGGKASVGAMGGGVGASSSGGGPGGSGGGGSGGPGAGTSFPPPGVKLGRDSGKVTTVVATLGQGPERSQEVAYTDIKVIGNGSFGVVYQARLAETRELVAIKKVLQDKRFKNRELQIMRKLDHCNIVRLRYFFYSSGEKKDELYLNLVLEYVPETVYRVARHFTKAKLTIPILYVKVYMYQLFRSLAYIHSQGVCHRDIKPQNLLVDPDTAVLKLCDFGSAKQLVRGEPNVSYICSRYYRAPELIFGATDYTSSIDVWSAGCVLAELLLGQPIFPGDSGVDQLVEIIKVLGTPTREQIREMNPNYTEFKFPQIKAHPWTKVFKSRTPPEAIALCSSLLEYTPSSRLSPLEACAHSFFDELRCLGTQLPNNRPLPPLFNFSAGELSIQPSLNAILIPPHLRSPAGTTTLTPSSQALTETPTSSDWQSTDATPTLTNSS

SMILES | AC50
Cc1ccc(/C=N/NC(=O)c2nnn(-c3nonc3N)c2-c2cccs2)cc1 | 1.04 µM
O=c1c2ccccc2oc2cc(NCCCn3ccnc3)ccc12 | > 30 µM (inactive)
Cc1ccc(OCc2nnnn2-c2ccccc2)cc1 | > 30 µM (inactive)
Cc1ccccc1NC1=NCCCS1 | > 30 µM (inactive)
COc1ccccc1N1C(=O)C2C(c3ccc(F)cc3)NN(C(=O)c3ccc(C)cc3)C2C1=O (stereo not drawn) | > 30 µM (inactive)
CC(NC(=O)COc1ccccc1F)C1CC2CCC1C2 (stereo not drawn) | > 30 µM (inactive)
Oc1ccc(-c2csc(Nc3cccnc3)n2)cc1 | 10.7 µM
CC(C)c1c(C(=O)N/N=C/c2ccsc2)nnn1-c1nonc1N | > 30 µM (inactive)
Cc1nc(C)c(C(=O)Nc2ncc([N+](=O)[O-])s2)o1 | > 30 µM (inactive)
CCOC(=O)N1CCC(N2CCN(S(=O)(=O)c3ccc([N+](=O)[O-])cc3)CC2)CC1 | > 30 µM (inactive)
C=CCn1c(O)c(/C(C)=N/N2CCCCCC2)c(=O)[nH]c1=O | 28.8 µM
O=C(COc1ccccc1Cl)NC1CC1 | > 30 µM (inactive)
Cc1csc(NC(=O)C2CC(=O)N(c3ccc(C)c(C)c3)C2)n1 (stereo not drawn) | > 30 µM (inactive)
Cc1c(O)ccc2c3c(c(=O)oc12)CCC(C)C3 (stereo not drawn) | > 30 µM (inactive)
C/C(=N/NC(=O)c1ccc(C)s1)c1ccncc1 | 27.3 µM
CCC(=O)NC(=S)Nc1cccc(C(C)=O)c1 | > 30 µM (inactive)
COc1cc2c(C#N)c(N3CCCC3)nc(N)c2c(N)n1 | > 30 µM (inactive)
CCOc1cccc2sc(=NC(=O)c3ccco3)n(CC(=O)OC)c12 | 7.61 µM
CCCCN(CCCC)c1cn[nH]c(=O)c1Cl | 11.2 µM
CC1(C)CC(=O)c2cnc(NCC3CCCO3)nc2C1 (stereo not drawn) | > 30 µM (inactive)
CCSc1cc(N2CCCC2)nc(-c2ccccc2)n1 | > 30 µM (inactive)
NC(=O)c1cc([N+](=O)[O-])ccc1NCc1cccc(N)c1 | 15.6 µM
CCCC(NS(=O)(=O)c1ccc(OC)cc1)C(=O)O (stereo not drawn) | > 30 µM (inactive)
N#Cc1sc2nc(-c3cccs3)cc(-c3ccccc3)c2c1N | > 30 µM (inactive)
COc1ccc(-n2c(O)c(C=NCc3ccc4c(c3)OCO4)c(=O)[nH]c2=O)cc1 | > 30 µM (inactive)
C=CCN1C(=O)/C(=C\c2cccs2)C(C(=O)OC)=C1C | > 30 µM (inactive)

SMILES | AC50
S=C(Nc1ccccc1)Nc1ccc2cn[nH]c2c1 | 24.9 µM
CCCCCCCOC(=O)C1=C(C)Nc2ncnn2C1c1cccs1 (stereo not drawn) | > 30 µM (inactive)
CCCCOC(=O)Nc1nnc(COc2ccccc2)s1 | > 30 µM (inactive)
CCN(CC)CCCNc1nc(N)c([N+](=O)[O-])c(N2CCCCCC2)n1 | 29.6 µM
CN1/C(=C\C=C(/C#N)C(=O)Nc2ccc(Cl)cc2)C(C)(C)c2ccccc21 | > 30 µM (inactive)
CCOC(=O)c1cc(C)sc1NC(=O)CCC(=O)O | > 30 µM (inactive)
COc1ccc2nc(NC(=O)CN3C(=O)NC4(CCCC4)C3=O)sc2c1 | 26.3 µM
CCOc1ccc2ncc(S(=O)(=O)c3ccccc3)c(N3CCN(c4ccc(OC)cc4)CC3)c2c1 | > 30 µM (inactive)
CCOc1ccc(-c2c(C(=O)N/N=C(\C)c3ccncc3)nnn2-c2nonc2N)cc1 | 20.9 µM
COc1cccc(/C=N/n2nnnc2N)c1OCC#N | > 30 µM (inactive)
COc1ccc(-c2cc(C(=O)N3CCN(c4ccccc4OC)CC3)no2)cc1OC | > 30 µM (inactive)
CC(=O)Nc1cccc(-c2csc(Nc3ccc(C)cn3)n2)c1 | > 30 µM (inactive)
CN(CCO)c1ncnc2c1sc1nc(N3CCOCC3)c3c(c12)CCC3 | > 30 µM (inactive)
Cc1ccc(-c2nnc(N3CCN(C(=O)COc4ccccc4)CC3)c3ccccc23)cc1 | > 30 µM (inactive)
COc1ccc(/C=N\NC(=O)c2ccccc2Br)cc1COc1ccccc1 | > 30 µM (inactive)
CC(=O)Oc1cc2c3c(c1)/C(=C1/SC(=S)NC1=O)C(=O)N3C(C)(C)C=C2C | > 30 µM (inactive)
N/C(=N\OC(=O)c1ccc2ccccc2c1)c1cccc([N+](=O)[O-])c1 | > 30 µM (inactive)
COc1cccc2cc(C(=O)NCc3ccco3)c(=O)oc12 | > 30 µM (inactive)
COc1cccc(C(=O)O/N=C(\N)c2ccccn2)c1 | 16.8 µM
CCOC(=O)N1CC=C2C(C#N)=C(N)C(C#N)(C#N)[C@H](c3cccs3)[C@H]2C1 | 22.1 µM
COc1ccc(-c2cc(=O)c3ccccc3o2)cc1 | > 30 µM (inactive)
CCCC(=O)Nc1cc(-c2cn3cccnc3n2)ccc1OC | > 30 µM (inactive)
COc1ccc(-c2cn3cccnc3n2)cc1NC(=O)CC(C)C | > 30 µM (inactive)
O=[N+]([O-])c1ccc(COc2ccccc2/C=N/O)cc1 | > 30 µM (inactive)
COc1ccc(OCc2nc(N)nc(Nc3cccc(C)c3C)n2)cc1 | > 30 µM (inactive)
Nc1ccc2nc(C3CCCCC3)[nH]c2c1 | > 30 µM (inactive)

SMILES | AC50
COc1ccc(OCC(=O)Nc2ccc3c(c2)C(=O)NC3=O)cc1 | 12.2 µM
CC1(C)CC(=O)C(CS(=O)(=O)c2ccccc2)=C(O)C1 | > 30 µM (inactive)
Cc1cn(C2OC(CC(=O)Oc3ccccc3)C(O)C2O)c(=O)[nH]c1=O (stereo not drawn) | 19.1 µM
O=P(COCCOCP(=O)(c1ccccc1)c1ccccc1)(c1ccccc1)c1ccccc1 | > 30 µM (inactive)
O=C(COc1cccc2cccnc12)N/N=C/c1ccccc1O | > 30 µM (inactive)
O=C(c1ccc(Cn2cnnn2)cc1)N1CCCC(Nc2ccc(F)c(F)c2)C1 (stereo not drawn) | 16.1 µM
c1ccc(Cn2nc(-c3ccccc3)nc2-c2ccccc2)cc1 | > 30 µM (inactive)
CCCCN(CC)C(=O)c1oc2ccc(S(=O)(=O)N3CCCC3)cc2c1C | > 30 µM (inactive)
COc1cc(C(=O)NCC(=O)N/N=C(C)\C=C\c2ccccc2)cc(OC)c1OC | > 30 µM (inactive)
CCOc1ccccc1C1N(c2ccc(OC)cc2)C(=O)C2CCCN21 (stereo not drawn) | > 30 µM (inactive)
Cc1c(CCC(=O)O)c(=O)oc2cc(O)ccc12 | > 30 µM (inactive)
O=C(NCCCn1ccnc1)C(Cl)(Cl)Cl | > 30 µM (inactive)
CC1(C)Cc2c(sc3c2C2=NCCN2C=N3)CO1 | > 30 µM (inactive)
Cn1c(SCc2cnc(-c3ccccc3)s2)nnc1C1COc2ccccc2O1 (stereo not drawn) | > 30 µM (inactive)
Cc1ccc(C)c(/C=N/Nc2ccccn2)c1 | > 30 µM (inactive)
O=C(CSc1ccccc1)Nc1ccc2c(c1)C(=O)NC2=O | 6.21 µM
O=[N+]([O-])c1ccccc1/C=N/n1c(-c2cccnc2)n[nH]c1=S | 28 µM
O=C(O)c1cn(-c2ccccc2)nc1-c1cccnc1 | > 30 µM (inactive)
O=Nc1c(-c2c(O)[nH]c3cc(Br)ccc23)[nH]c2ccccc12 | < 0.0135 µM
O=C1NC(=Nc2ccccc2Cl)S/C1=C\c1cc([N+](=O)[O-])ccc1O | 3.23 µM
Cc1noc(C)c1COc1ccc(C(=O)OCC(=O)Nc2c(C)n(C)n(-c3ccccc3)c2=O)cc1 | > 30 µM (inactive)
Cn1c(=O)c2c(nc(NCC3CCCO3)n2Cc2ccccc2)n(C)c1=O (stereo not drawn) | > 30 µM (inactive)
CC1CCCCC1NC(=O)C(=O)NCC1CCCO1 (stereo not drawn) | > 30 µM (inactive)
Oc1ccc(/C=N/Nc2nccnc2Cl)cc1 | 24.8 µM
c1cc2[nH]snc2c2nc(C3CC3)nc12 | 20.8 µM
Cc1c(C(=O)OCCOC(C)C)[nH]c2c1C(=O)CC(C)(C)C2 | 25.4 µM
